Patent publication US8969338B2, “Ethynyl derivatives” (Hoffmann-La Roche Inc., priority 2011, dated 2015)

Molecular target: T1, human mGlu5a receptor (Homo sapiens, UniProt P41594)
T1 construct: expressed in transfected cells
Assay: Intracellular Ca2+ mobilization assay (mGlu5 PAM)
Assay type: cell-based
Settings: for EC50: HEK-293 cells stably transfected with human mGlu5a, L-glutamate added at EC20 after pre-incubation with test compound, read-out: EC50 (nM) mGlu5PAM; for Emax: maximal response in % of the maximal stimulatory effect obtained with saturating concentrations of L-glutamate, read-out: Eff. (%)
Experimental: A monoclonal HEK-293 cell line stably transfected with a cDNA encoding for the human mGlu5a receptor was generated; for the work with mGlu5 Positive Allosteric Modulators (PAMs), a cell line with low receptor expression levels and low constitutive receptor activity was selected to allow the differentiation of agonistic versus PAM activity. Cells were cultured according to standard protocols (Freshney, 2000) in Dulbecco's Modified Eagle Medium with high glucose supplemented with 1 mM glutamine, 10% (vol/vol) heat-inactivated bovine calf serum, Penicillin/Streptomycin, 50 μg/ml hygromycin and 15 μg/ml blasticidin (all cell culture reagents and antibiotics from Invitrogen, Basel, Switzerland).
About 24 hrs before an experiment, 5×10^4 cells/well were seeded in poly-D-lysine coated, black/clear-bottomed 96-well plates. The cells were loaded with 2.5 μM Fluo-4AM in loading buffer (1×HBSS, 20 mM HEPES) for 1 hr at 37° C. and washed five times with loading buffer. The cells were transferred into a Functional Drug Screening System 7000 (Hamamatsu, Paris, France), and 11 half logarithmic serial dilutions of test compound at 37° C. were added and the cells were incubated for 10-30 min, with on-line recording of fluorescence. Following this pre-incubation step, the agonist L-glutamate was added to the cells at a concentration corresponding to EC20 (typically around 80 μM) with on-line recording of fluorescence; in order to account for day-to-day variations in the responsiveness of cells, the EC20 of glutamate was determined immediately ahead of each experiment by recording of a full dose-response curve of glutamate.
Responses were measured as peak increase in fluorescence minus basal (i.e. fluorescence without addition of L-glutamate), normalized to the maximal stimulatory effect obtained with saturating concentrations of L-glutamate. Graphs were plotted with the % maximal stimulatory using XLfit, a curve fitting program that iteratively plots the data using Levenburg Marquardt algorithm. The single site competition analysis equation used was y=A+((B−A)/(1+((x/C)D))), where y is the % maximal stimulatory effect, A is the minimum y, B is the maximum y, C is the EC50, x is the log 10 of the concentration of the competing compound and D is the slope of the curve (the Hill Coefficient). From these curves the EC50 (concentration at which half maximal stimulation was achieved), the Hill coefficient as well as the maximal response in % of the maximal stimulatory effect obtained with saturating concentrations of L-glutamate were calculated.
A depression of the signal observed after addition of the EC20 concentration of L-glutamate was indicative of an inhibitory activity of the test compound.

T1 sequence (P41594 21-1180 isoform P41594-2 limits assumed): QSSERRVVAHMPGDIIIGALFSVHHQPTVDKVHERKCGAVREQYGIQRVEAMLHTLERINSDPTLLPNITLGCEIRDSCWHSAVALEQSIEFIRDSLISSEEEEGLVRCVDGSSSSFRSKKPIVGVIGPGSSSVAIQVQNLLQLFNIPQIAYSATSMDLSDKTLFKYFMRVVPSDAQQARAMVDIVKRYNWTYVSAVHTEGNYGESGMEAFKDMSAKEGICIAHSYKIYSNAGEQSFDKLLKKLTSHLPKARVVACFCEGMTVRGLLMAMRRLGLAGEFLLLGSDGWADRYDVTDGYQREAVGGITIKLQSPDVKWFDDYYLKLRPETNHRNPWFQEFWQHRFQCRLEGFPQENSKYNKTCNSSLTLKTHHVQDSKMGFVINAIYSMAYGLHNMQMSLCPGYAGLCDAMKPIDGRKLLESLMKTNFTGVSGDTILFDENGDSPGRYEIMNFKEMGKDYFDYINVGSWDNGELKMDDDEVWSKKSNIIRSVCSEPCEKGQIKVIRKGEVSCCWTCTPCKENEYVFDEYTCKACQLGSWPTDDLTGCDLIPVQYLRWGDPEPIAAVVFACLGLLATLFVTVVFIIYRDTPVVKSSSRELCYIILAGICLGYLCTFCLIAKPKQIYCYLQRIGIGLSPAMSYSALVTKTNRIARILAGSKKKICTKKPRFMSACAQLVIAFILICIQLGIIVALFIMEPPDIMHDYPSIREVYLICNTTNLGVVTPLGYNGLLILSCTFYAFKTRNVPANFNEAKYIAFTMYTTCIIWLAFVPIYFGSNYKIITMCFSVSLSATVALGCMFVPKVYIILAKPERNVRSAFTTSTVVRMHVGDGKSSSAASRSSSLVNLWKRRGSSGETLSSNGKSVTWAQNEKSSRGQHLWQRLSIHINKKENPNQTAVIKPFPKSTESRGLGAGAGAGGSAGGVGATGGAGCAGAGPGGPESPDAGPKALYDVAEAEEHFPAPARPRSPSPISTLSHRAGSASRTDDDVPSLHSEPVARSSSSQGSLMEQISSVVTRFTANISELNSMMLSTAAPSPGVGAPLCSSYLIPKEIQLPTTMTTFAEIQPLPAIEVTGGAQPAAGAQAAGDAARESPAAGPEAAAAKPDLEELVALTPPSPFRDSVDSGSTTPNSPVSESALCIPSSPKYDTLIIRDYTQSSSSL

SMILES	EC50	Emax
CC1(C)CC(=O)N(c2ccc(C#Cc3ccccc3)nc2)C1 [Example 1, 4,4-Dimethyl-1-(6-phenylethynyl-pyridin-3-yl)-pyrrolidin-2-one]	49 nM	75%
CC1(C)CCN(c2ccc(C#Cc3ccccc3)nc2)C(=O)O1 [Example 2, 6,6-Dimethyl-3-(6-phenylethynyl-pyridin-3-yl)-[1,3]oxazinan-2-one]	96 nM	85%
CC1(C)CC(=O)N(c2cnc(C#Cc3ccccc3)nc2)C1 [Example 9]	36 nM	39%
CN1N(c2ccc(C#Cc3ccccc3)nc2)C(=O)CC1(C)C [Example 12, 1,5,5-Trimethyl-2-(6-phenylethynyl-pyridin-3-yl)-pyrazolidin-3-one]	40 nM	66%
CN1C(=O)N(c2ccc(C#Cc3cccnc3)nc2)CC1(C)C [Example 6, 3,4,4-Trimethyl-1-(6-pyridin-3-ylethynyl-pyridin-3-yl)-imidazolidin-2-one]	241 nM	36%
CN1C(=O)N(c2ccc(C#Cc3ccc(F)cc3)nc2)CC1(C)C [Example 4, 1-[6-(4-Fluoro-phenylethynyl)-pyridin-3-yl]-3,4,4-trimethyl-imidazolidin-2-one]	50 nM	44%
CN1N(c2ccc(C#Cc3cccc(F)c3)nc2)C(=O)CC1(C)C [Example 13, 2-[6-(3-Fluoro-phenylethynyl)-pyridin-3-yl]-1,5,5-trimethyl-pyrazolidin-3-one]	38 nM	63%
CN1C(=O)N(c2ccc(C#Cc3cccc(F)c3)nc2)CC1(C)C [Example 5, 1-[6-(3-Fluoro-phenylethynyl)-pyridin-3-yl]-3,4,4-trimethyl-imidazolidin-2-one]	19 nM	42%
CCN1C(=O)N(c2cnc(C#Cc3ccccc3)nc2)CC1(C)C [Example 11, 3-Ethyl-4,4-dimethyl-1-(2-phenylethynyl-pyrimidin-5-yl)-imidazolidin-2-one]	79 nM	52%
CN1C(=O)N(c2ccc(C#Cc3ccccc3)nc2)CC1(C)C [Example 3, 3,4,4-Trimethyl-1-(6-phenylethynyl-pyridin-3-yl)-imidazolidin-2-one]	15 nM	45%

Further lines, results first:

EC50	Emax	SMILES
62 nM	56%	CC1(C)CC(=O)N(c2ccc(C#Cc3ccccc3)nc2)N1 [Example 8, 5,5-Dimethyl-2-(6-phenylethynyl-pyridin-3-yl)-pyrazolidin-3-one]
40 nM	41%	CC1(C)CC(=O)N(c2ccc(C#Cc3cc(F)ccc3F)nc2)N1 [Example 16, 2-[6-(2,5-Difluoro-phenylethynyl)-pyridin-3-yl]-5,5-dimethyl-pyrazolidin-3-one]
39 nM	62%	CC1(C)CC(=O)N(c2ccc(C#Cc3cccc(F)c3)nc2)C1 [Example 7, 1-[6-(3-Fluoro-phenylethynyl)-pyridin-3-yl]-4,4-dimethyl-pyrrolidin-2-one]
53 nM	57%	CN1N(c2ccc(C#Cc3cc(F)ccc3F)nc2)C(=O)CC1(C)C [Example 14, 2-[6-(2,5-Difluoro-phenylethynyl)-pyridin-3-yl]-1,5,5-trimethyl-pyrazolidin-3-one]
68 nM	38%	CC1(C)CC(=O)N(c2ccc(C#Cc3cccc(F)c3)nc2)N1 [Example 15, 2-[6-(3-Fluoro-phenylethynyl)-pyridin-3-yl]-5,5-dimethyl-pyrazolidin-3-one]
